Tests used:
[1] = test system: SMB-231 pancreatic cancer cells; experiment: In vitro proliferation inhibition of SMB-231 pancreatic cancer cells; format: cell-based; details: concentration of 1 uM; compared with blank control group
Protocol: (§1) The SMB-231 pancreatic cancer cells were thawed, and cultured in a changed medium after 24 hours. Medium preparation method: 6% serum, 1% of a bispecific antibody+a 1640 basal medium. After grown to confluent, the cells were digested and subcultured to expand the number of cells. When reached the required amount, the cells were digested by trypsin, centrifuged, and resuspended in PBS to prepare a cell suspension of 1×10^8 cells/ml. A part of the cell suspension was added with the monotropein, desacetyl asperulosidic acid, asperuloside, and asperulosidic acid respectively, and the inhibition rate (%) of tumor cell proliferation by each of these different compounds was examined.

vitamin D receptor = experiment: Expression of vitamin D receptor in colon tissues, Experiment 2 (Western blot, immunohistochemistry); format: in vivo, Balb/c mice; details: compared with the blank group; VD3 0.2 mg/kg, four compounds 2 mg/kg
Protocol: (§2) Experimental method: 70 Balb/c mice of 6-8 weeks were purchased from the Experimental Animal Center in Guangzhou University of Chinese Medicine, weighed about 18-22 g, and subjected to adaptive feeding for 10 days. Modeling was divided into three stages. In the first stage, except for the normal group of animals being given saline injection, each of the other animals were intraperitoneally injected with a carcinogen AOM (10 mg/kg), and given free access to 2% DSS water from the next day for 7 days, and then given access to replaced regular drinking water for 14 days. In the second stage, the animals were given free access to 2% DSS water for 10 days, and then given access to replaced regular drinking water for 14 days. In the third stage, the animals were given free access to 2% DSS water for 10 days, and then given access to replaced regular drinking water for 11 days. The normal group was given access to regular drinking water throughout the experiment. The diet, water drinking and body weights of the animals were recorded daily and DAI scores were made, and the animals were killed and harvested at the 10th week. In this experiment, the animals were divided into groups and administrated on the first day of a modeling period of the second stage, where a total of 7 groups were set, each group including 10 animals. The first group was a blank control group (control) that was given access to drinking water by gavage; the second group was a model group (model), in which a total of 10 animals were given access to drinking water by gavage; the third group was a vitamin D3 positive administration control group (VD3, 0.2 mg/kg); and the fourth to seventh groups were given monotropein, desacetyl asperulosidic acid, asperuloside, and asperulosidic acid (groups labeled as: Mo, As, Aa, Da), respectively at a given dose of 2 mg/kg. Dosing was conducted once a day until the end of the experiment. At the end of the experiment, the animals were anesthetized and harvested, and the colon tissue was taken, measured with a ruler for the length, and measured with a vernier caliper for the thickness. The effects of monotropein, desacetyl asperulosidic acid, asperuloside and asperulosidic acid on expression of the vitamin D receptor were detected.

[2] = test system: AOM/DSS colon cancer model; experiment: AOM/DSS colon cancer model, Experiment 2 (colon length, thickness, tumors); format: in vivo, Balb/c mice; details: 2 mg/kg once a day
Protocol: as §2

HT29 transplanted tumor = experiment: Transplanted tumor of HT29 colon cancer cells in nude mice; format: in vivo; details: 2 mg/kg in combination with 5-fluorouracil at half dose (20 mg/kg), once a day; effect comparable to 5-fluorouracil alone 40 mg/kg
Protocol: as §1, with “HT29” for “SMB-231 pancreatic cancer”
(§3) Male adult nude mice, which had the body weights of 20-24 g, were purchased from Guangdong Medical Laboratory Animal Center. After 7 days of adaptive feeding of the animals, except for the blank group, the remaining animals were injected with 0.2 ml of a cell suspension in PBS at ventrodorsal and scapula sites of them, the response conditions of the animals were observed, and the body weights of the animals were determined once a week. After 2 weeks of observation, the animals were grouped into the following groups according to tumor size: a blank group; a model group; a 5-fluorouracil control group (5-Full, 40 mg/kg); monotropein+5-fluorouracil (2 mg/kg monotropein+20 mg/kg 5-fluorouracil), desacetyl asperulosidic acid+5-fluorouracil (2 mg/kg desacetyl asperulosidic acid+20 mg/kg 5-fluorouracil), asperuloside+5-fluorouracil (2 mg/kg asperuloside+20 mg/kg 5-fluorouracil), asperulosidic acid+5-fluorouracil (2 mg/kg asperulosidic acid+20 mg/kg 5-fluorouracil), these groups being labeled as: Mo, As, Aa, Da. Each group included 8 animals; and administration was conducted once a day.
(§4) The status, death conditions, and eating and drinking conditions of the animals were observed daily. The body weights of the animals were determined once a week and the tumor size of the animals was determined every 4 days. The tumor volume of the animals was determined by using a vernier caliper. After 1 month of administration, the animals were sacrificed after blood was sampled from the orbit thereof, and the tumor was separated and weighed.

[3] = test system: SW1990 breast cancer cells; experiment: In vitro proliferation inhibition of SW1990 breast cancer cells; format: cell-based; details: concentration of 1 uM; compared with blank control group
Protocol: as §1, with “SW1990” for “SMB-231 pancreatic cancer”

HT29 colon cancer cells = experiment: In vitro proliferation inhibition of HT29 colon cancer cells; format: cell-based; details: concentration of 1 uM; compared with blank control group
Protocol: as §1, with “HT29” for “SMB-231 pancreatic cancer”

[4] = test system: transplanted tumor of MB-231 pancreatic cancer cells; experiment: Transplanted tumor of MB-231 pancreatic cancer cells in nude mice; format: in vivo; details: 2 mg/kg in combination with 5-fluorouracil at half dose (20 mg/kg), once a day; effect comparable to 5-fluorouracil alone 40 mg/kg
Protocol: as §1
as §3, with “of a SMB-231 pancreatic cancer cell suspension” for “of a cell suspension”
as §4

[5] = test system: transplanted tumor of SW1990 breast cancer cells; experiment: Transplanted tumor of SW1990 breast cancer cells in nude mice; format: in vivo; details: 2 mg/kg in combination with 5-fluorouracil at half dose (20 mg/kg), once a day; effect comparable to 5-fluorouracil alone 40 mg/kg
Protocol: as §1, with “SW1990” for “SMB-231 pancreatic cancer”
as §3, with “of a SW1990 cell suspension” for “of a cell suspension”
as §4

## CC(=O)OCC1=C[C@H](O)[C@@H]2C(C(=O)O)=CO[C@@H](O[C@@H]3O[C@H](CO)[C@@H](O)[C@H](O)[C@H]3O)[C@H]12 [asperulosidic acid]
[1]
  proliferation of SMB-231 pancreatic cancer cells in vitro: significantly inhibit the proliferation
Vitamin D receptor
  expression of the vitamin D receptor in the colon tissues (Western blot and immunohistochemistry): promote expression enhancement
[2]
  incidence and development of colorectal cancers: inhibiting the incidence and development of colorectal cancers
HT29 transplanted tumor
  tumor proliferation in HT29 tumor-bearing mice: significantly inhibit tumor proliferation
[3]
  proliferation of SW1990 cells in vitro: significantly inhibit the proliferation
HT29 colon cancer cells
  proliferation of HT29 colorectal cancer cells in vitro: significantly inhibit the proliferation
[4]
  tumor proliferation in SMB-231 tumor-bearing mice: significantly inhibit tumor proliferation
[5]
  tumor proliferation in SW1990 tumor-bearing mice: significantly inhibit tumor proliferation

## CC(=O)OCC1=C[C@@H]2OC(=O)C3=CO[C@@H](O[C@@H]4O[C@H](CO)[C@@H](O)[C@H](O)[C@H]4O)[C@H]1[C@@H]32 [asperuloside]
[1]
  proliferation of SMB-231 pancreatic cancer cells in vitro: significantly inhibit the proliferation
Vitamin D receptor
  expression of the vitamin D receptor in the colon tissues (Western blot and immunohistochemistry): promote expression enhancement
[2]
  incidence and development of colorectal cancers: inhibiting the incidence and development of colorectal cancers
HT29 transplanted tumor
  tumor proliferation in HT29 tumor-bearing mice: significantly inhibit tumor proliferation
[3]
  proliferation of SW1990 cells in vitro: significantly inhibit the proliferation
HT29 colon cancer cells
  proliferation of HT29 colorectal cancer cells in vitro: significantly inhibit the proliferation
[4]
  tumor proliferation in SMB-231 tumor-bearing mice: significantly inhibit tumor proliferation
[5]
  tumor proliferation in SW1990 tumor-bearing mice: significantly inhibit tumor proliferation

## O=C(O)C1=CO[C@@H](O[C@@H]2O[C@H](CO)[C@@H](O)[C@H](O)[C@H]2O)[C@@H]2C(CO)=C[C@H](O)[C@H]12 [desacetyl asperulosidic acid]
[1]
  proliferation of SMB-231 pancreatic cancer cells in vitro: significantly inhibit the proliferation
Vitamin D receptor
  expression of the vitamin D receptor in the colon tissues (Western blot and immunohistochemistry): promote expression enhancement
[2]
  incidence and development of colorectal cancers: inhibiting the incidence and development of colorectal cancers
HT29 transplanted tumor
  tumor proliferation in HT29 tumor-bearing mice: significantly inhibit tumor proliferation
[3]
  proliferation of SW1990 cells in vitro: significantly inhibit the proliferation
HT29 colon cancer cells
  proliferation of HT29 colorectal cancer cells in vitro: significantly inhibit the proliferation
[4]
  tumor proliferation in SMB-231 tumor-bearing mice: significantly inhibit tumor proliferation
[5]
  tumor proliferation in SW1990 tumor-bearing mice: significantly inhibit tumor proliferation
